Reference: US20230183219A1, “CONDENSED SUBSTITUTED HYDROPYRROLES AS ANTAGONISTS OF THE MUSCARINIC ACETYLCHOLINE RECEPTOR M4” (Vanderbilt University, priority 2020, published 2023)
pIC50: −log10 of the molar value.

Molecular target: T1, Human M4 (Homo sapiens, UniProt P08173)
T1 construct: Human or rat M4 cDNA, along with the chimeric G protein Gqi5, were transfected into Chinese hamster ovary (CHO-K1) cells; expressed in transfected cells; host or cells: CHO-K1 (Chinese hamster ovary, ATCC), stably co-expressing Gqi5
T1 sequence (P08173 1-479): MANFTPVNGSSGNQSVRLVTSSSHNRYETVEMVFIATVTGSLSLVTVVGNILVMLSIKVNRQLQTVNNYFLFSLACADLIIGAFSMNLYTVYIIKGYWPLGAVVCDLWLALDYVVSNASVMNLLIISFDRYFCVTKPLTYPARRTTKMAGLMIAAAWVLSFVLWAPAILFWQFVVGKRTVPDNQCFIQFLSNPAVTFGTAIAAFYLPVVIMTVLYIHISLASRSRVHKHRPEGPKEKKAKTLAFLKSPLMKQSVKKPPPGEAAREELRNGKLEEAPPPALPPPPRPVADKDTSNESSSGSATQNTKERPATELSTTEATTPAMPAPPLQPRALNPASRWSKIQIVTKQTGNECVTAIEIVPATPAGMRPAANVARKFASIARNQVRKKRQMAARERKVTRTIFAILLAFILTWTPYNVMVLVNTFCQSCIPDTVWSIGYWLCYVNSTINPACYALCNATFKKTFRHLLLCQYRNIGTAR
Assay: mAChR M4 cell-based functional assay (calcium flux, decrease of EC80 acetylcholine response)
Conditions: for remaining activity at 30 µM: % ACh maximum at 30 μM, read-out: Human M4 Emin; for pIC50: M4/Gqi5/CHO-K1 cells, decrease of response to EC80 acetylcholine
Procedure, shortened: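 IC50 reflects inhibition of an EC80 acetylcholine calcium response, fitted by four-parameter logistic equation. Fluo-4-loaded M4/Gqi5 CHO-K1 cells received compound (10-point, 1:3 series) 2 s into the FDSS read, then EC20 acetylcholine at 143 s and EC80 at 268 s.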

Row | Structure (SMILES) | remaining activity at 30 µM [%] | pIC50
1 | CCc1ccccc1-c1cc(C(F)(F)F)c(N[C@H]2C[C@@H]3CN(CC4CCOCC4)C[C@@H]3C2)nn1 [Example 85, (3aR,5s,6aS)-N-(6-(2-ethylphenyl)-4-(trifluoro-methyl)pyridazin-3-yl)-2-((tetrahydro-2H-pyran-4-yl)methyl)octahydro-cyclopenta[c]pyrrol-5-amine] | 3 | 7.37
2 | CN1Cc2cc(-c3cc(C(F)(F)F)c(N[C@H]4C[C@@H]5CN(CC6CCOCC6)C[C@@H]5C4)nn3)ccc2C1=O [Example 86, 2-methyl-5-(6-(((3aR,5s,6aS)-2-((tetrahydro-2H-pyran-4-yl)methyl)octahydro-cyclopenta[c]pyrrol-5-yl)amino)-5-(trifluoro-methyl)pyridazin-3-yl)isoindolin-1-one] | 4 | 6.70
3 | Cn1ccc2cc(-c3cc(C(F)(F)F)c(N[C@H]4C[C@@H]5CN(CC6CCOCC6)C[C@@H]5C4)nn3)ccc21 [Example 87, (3aR,5s,6aS)-N-(6-(1-methyl-1H-indol-5-yl)-4-(trifluoromethyl)pyridazin-3-yl)-2-((tetrahydro-2H-pyran-4-yl)methyl)octahydro-cyclopenta[c]pyrrol-5-amine] | 4 | 7.05
4 | FC(F)(F)c1cc(-c2ccc3c(c2)CCO3)nnc1N[C@H]1C[C@@H]2CN(CC3CCOCC3)C[C@@H]2C1 [Example 88, (3aR,5s,6aS)-N-(6-(2,3-dihydrobenzofuran-5-yl)-4-(trifluoromethyl)pyridazin-3-yl)-2-((tetrahydro-2H-pyran-4-yl)methyl)octahydro-cyclopenta[c]pyrrol-5-amine] | 3 | 7.32
5 | Fc1ccc(C(F)(F)F)cc1-c1cc(C(F)(F)F)c(N[C@H]2C[C@@H]3CN(CC4CCOCC4)C[C@@H]3C2)nn1 [Example 89, (3aR,5s,6aS)-N-(6-(2-fluoro-5-(trifluoromethyl)phenyl)-4-(trifluoromethyl)pyridazin-3-yl)-2-((tetrahydro-2H-pyran-4-yl)methyl)octahydro-cyclopenta[c]pyrrol-5-amine] | 4 | 6.20
6 | Cn1ccc2ccc(-c3cc(C(F)(F)F)c(N[C@H]4C[C@@H]5CN(CC6CCOCC6)C[C@@H]5C4)nn3)cc21 [Example 90, (3aR,5s,6aS)-N-(6-(1-methyl-1H-indol-6-yl)-4-(trifluoromethyl)pyridazin-3-yl)-2-((tetrahydro-2H-pyran-4-yl)methyl)octahydro-cyclopenta[c]pyrrol-5-amine] | 4 | 6.20
7 | CCOc1cc(F)c(-c2cc(C(F)(F)F)c(N[C@H]3C[C@@H]4CN(CC5CCOCC5)C[C@@H]4C3)nn2)cc1F [Example 91, (3aR,5s,6aS)-N-(6-(4-ethoxy-2,5-difluorophenyl)-4-(trifluoromethyl)pyridazin-3-yl)-2-((tetrahydro-2H-pyran-4-yl)methyl)octahydro-cyclopenta[c]pyrrol-5-amine] | 3 | 6.55
8 | Cc1cc(-c2cc(C(F)(F)F)c(N[C@H]3C[C@@H]4CN(CC5CCOCC5)C[C@@H]4C3)nn2)c(F)cc1F [Example 92, (3aR,5s,6aS)-N-(6-(2,4-difluoro-5-methylphenyl)-4-(trifluoromethyl)pyridazin-3-yl)-2-((tetrahydro-2H-pyran-4-yl)methyl)octahydro-cyclopenta[c]pyrrol-5-amine] | 2 | 6.47
9 | Cc1cc(F)c(F)c(-c2cc(C(F)(F)F)c(N[C@H]3C[C@@H]4CN(CC5CCOCC5)C[C@@H]4C3)nn2)c1 [Example 93, (3aR,5s,6aS)-N-(6-(2,3-difluoro-5-methylphenyl)-4-(trifluoromethyl)pyridazin-3-yl)-2-((tetrahydro-2H-pyran-4-yl)methyl)octahydro-cyclopenta[c]pyrrol-5-amine] | 3 | 6.76
